The values that follow come from patent US10842150B2, “Method of controlling Fusarium on potato using lower alkyl naphthalene” (1,4Group, Inc., priority 2018, dated 2020).

The test system of one assay is F. oxysporum. Kind of assay: Single spore isolate plates of F. oxysporum exposed to 1,4-DMN vapour; colony count and mycelium diameter. Format: cell-based, Fusarium oxysporum. The source says:
F. oxysporum was isolated from the surface of potato tuber using the Fusarium selective media Nash-Snider, to which cultures were transferred and maintained on nutritionally complex potato dextrose agar plates. DNA sequencing using selective primers NL1, NL2, ITS1F, and ITS2R confirmed the fungus to be F. oxysporum.
A single spore isolation technique was utilized to record the number and growth response of the spores treated with 1,4-DMN in comparison with the spores treated with water (i.e., the Control). Single spore isolate plates were contained in vacuum sealed chambers and incubated at a constant temperature of about 22° C., while exposed to 7.5 μl of 1,4-DMN via aerosol dispersion for four days. After a day of rest, the spores on each plate were measured and counted.
Potato skin scrapings were cultured on the Fusarium selective media Nash Snider Agar, and later transferred and maintained on nutritionally complex Potato Dextrose Agar (PDA) (Step 1.1 in FIG. 1). DNA isolations were performed on single spore isolates using a Power Soil DNA Isolation Kit (Step 1.2 in FIG. 1). Several primers as shown in FIG. 2 were studied for amplification of Fungal DNA. Fusarium selective primers NL1, NL2, ITS1F, and ITS2 allowed PCR amplification of fungal strains genomically similar to Fusarium. […] The DNA were sequenced, and the sequence data were analyzed using NCBI BLASTn sequence alignment (Step 1.4 in FIG. 1). […] The strain identified as F. oxysporum was then subjected to treatments of DMN (7.5 μl) in specialized airtight bins, and incubated at a constant temperature of about 25° C. for four days (Step 1.5 in FIG. 1). […] Then, colony quantity and mycelium diameter were determined (Step 1.6 in FIG. 1).

For a further assay, the system named is Fusarium spp. The following applies: two storage trials over two years; cited from earlier work.
A further assay concerns Fusarium wilt. Particulars: treatment of potato tuber; cited from earlier work.

Entries after “also recorded” stand apart in the source; their conditions may differ.

For the compound `Cc1ccc(C)c2ccccc12` [1,4-DMN, 1,4-dimethyl naphthalene], the “Average Colony mycelium diameter” value in the assay on F. oxysporum (7.5 μl 1,4-DMN via aerosol dispersion in sealed chamber, four days, about 22° C. / 25° C., Control 9.89 cm) was 2.94 cm. In the assay on F. oxysporum (7.5 μl 1,4-DMN, four days, Control 4.05), the “Average Colonies per Plate” value is recorded as 4.125. The “Total Colonies” value in the assay on F. oxysporum (7.5 μl 1,4-DMN, four days, Control 162) was found to be 165. Also, the “mycelium growth of F. oxysporum versus untreated Control (in words)” value with F. oxysporum (exposure to 1,4-DMN for four days) is “slower mycelium diameter growth; also recorded: inhibition of mycelium growth”.
On to `OP(O)O` [Phosphorous acid, phosphorous acid], for which, in the assay on Fusarium spp., the “efficacy in suppressing tuber infection caused by Fusarium spp. (in words)” value (“efficacy” for short) is on record as “moderately effective”.
As for `CO/C=C(/C(=O)OC)c1ccccc1Oc1cc(Oc2ccccc2C#N)ncn1` [azoxystrobin], in the assay with Fusarium spp., the “efficacy” value is on record as “moderately effective”.
Turning to `N#Cc1c[nH]cc1-c1cccc2c1OC(F)(F)O2` [fludioxonil], the “effect in controlling Fusarium wilt development (in words)” value in the assay on Fusarium wilt is given as “limited effect”.
As to `OO` [hydrogen peroxide], the “efficacy” value with Fusarium spp. was “moderately effective”.
For `c1ccc2ncccc2c1` [quinoline], the “effect in controlling Fusarium wilt development (in words)” value in the assay with Fusarium wilt is listed as “limited effect”.
